Data: US9409905B2, “Antibacterial compounds and methods for use” (PTC THERAPEUTICS, INC., priority 2011, dated 2016)
Values after ≈ are worked out from the molar mass of the structure shown.

Experiments:
E. coli 25922 = assay: Antibacterial activity, microbroth dilution MIC (Table 1); assay type: cell-based, Escherichia coli; conditions: Escherichia coli; microbroth dilution; control Gram-negative E. coli 25922 strain; read-out: MIC, 25922
Text: (§1) The antibacterial activity from a microbroth dilution method may be presented as the minimum inhibitory concentration (MIC in μg/mL). The MIC value is the lowest concentration of drug which prevents macroscopically visible growth under test conditions.
(§2) Antibacterial activity of test compounds against the super sensitive Gram-negative Escherichia coli (E. coli) BAS849 bacterium, the control Gram-negative E. coli 25922 strain and the Gram-positive Staphylococcus aureus (S. aureus) 29213 bacterium are shown in Table 1.

[1] = tested on: Escherichia coli (E. coli) BAS849; assay: as above; assay type: cell-based; conditions: microbroth dilution, super sensitive Gram-negative E. coli BAS849, read-out: MIC, BAS849
Text: as §1, §2

[2] = tested on: Staphylococcus aureus (S. aureus) 29213; assay: as above; assay type: cell-based; conditions: microbroth dilution, Gram-positive S. aureus 29213, read-out: MIC, 29213
Text: as §1, §2

E. coli LZ3111 = assay: Antibacterial activity, MIC, quinolone resistant strain (Table 2); assay type: cell-based; conditions: Escherichia coli, LZ3111, read-out: MIC LZ3111
Text: as §1
Mutations in these regions are known to confer a high level resistance to the quinolone class of antibiotics.

Row | SMILES | MIC (E. coli 25922) [µg/mL] | MIC [1] [µg/mL] | MIC [2] [µg/mL] | MIC (E. coli LZ3111) [µg/mL]
1 | CCc1cc(C(=O)O)c(=O)[nH]c1-c1cc(C)c2c(c1)cc(CN1CCCC1)n2C [Cpd 99, 6-(1,7-dimethyl-2-(pyrrolidin-1-ylmethyl)-1H-indol-5-yl)-5-ethyl-2-oxo-1,2-dihydropyridine-3-carboxylic acid] | 3.5 to 12.5 (≈ 8.89 to 31.8 µM) | < 1 | 12.5 to 150 (≈ 31.8 to 381 µM) | 12.5 to 150 (≈ 31.8 to 381 µM)
2 | CCc1cc(C(=O)O)c(=O)[nH]c1-c1cc(C)c2c(c1)cc(CN1CCCCC1)n2C [Cpd 100, 6-(1,7-dimethyl-2-(piperidin-1-ylmethyl)-1H-indol-5-yl)-5-ethyl-2-oxo-1,2-dihydropyridine-3-carboxylic acid] | 3.5 to 12.5 (≈ 8.59 to 30.7 µM) | < 1 | 12.5 to 150 (≈ 30.7 to 368 µM) | 12.5 to 150 (≈ 30.7 to 368 µM)
3 | CCc1cc(C(=O)O)c(=O)[nH]c1-c1cc(F)c2c(c1)cc(CN(CC)CC)n2C [Cpd 101, 6-(2-((diethylamino)methyl)-7-fluoro-1-methyl-1H-indol-5-yl)-5-ethyl-2-oxo-1,2-dihydropyridine-3-carboxylic acid] | 3.5 to 12.5 (≈ 8.76 to 31.3 µM) | < 1 | 12.5 to 150 (≈ 31.3 to 376 µM) | 12.5 to 150 (≈ 31.3 to 376 µM)
4 | CCc1cc(C(=O)O)c(=O)[nH]c1-c1cc(F)c2c(c1)cc(CN1CCCCC1)n2C [Cpd 102, 5-ethyl-6-(7-fluoro-1-methyl-2-(piperidin-1-ylmethyl)-1H-indol-5-yl)-2-oxo-1,2-dihydropyridine-3-carboxylic acid] | 3.5 to 12.5 (≈ 8.51 to 30.4 µM) | < 1 | 12.5 to 150 (≈ 30.4 to 365 µM) | 12.5 to 150 (≈ 30.4 to 365 µM)
5 | CCc1cc(C(=O)O)c(=O)[nH]c1-c1cc(C)c2c(c1)cc(CN1CCOCC1)n2C [Cpd 103, 6-(1,7-dimethyl-2-(morpholinomethyl)-1H-indol-5-yl)-5-ethyl-2-oxo-1,2-dihydropyridine-3-carboxylic acid] | 12.5 to 150 (≈ 30.5 to 366 µM) | < 1 | 12.5 to 150 (≈ 30.5 to 366 µM) | 12.5 to 150 (≈ 30.5 to 366 µM)
6 | CCc1cc(C(=O)O)c(=O)[nH]c1-c1cc(C)c2c(c1)cc(CN(CC)CC)n2C [Cpd 104, 6-(2-((diethylamino)methyl)-1,7-dimethyl-1H-indol-5-yl)-5-ethyl-2-oxo-1,2-dihydropyridine-3-carboxylic acid] | 3.5 to 12.5 (≈ 8.85 to 31.6 µM) | < 1 | 12.5 to 150 (≈ 31.6 to 379 µM) | 12.5 to 150 (≈ 31.6 to 379 µM)
7 | CCc1cc(C(=O)O)c(=O)[nH]c1-c1cc(C)c2c(c1)cc(CN(C)C)n2C [Cpd 105, 6-(2-((dimethylamino)methyl)-1,7-dimethyl-1H-indol-5-yl)-5-ethyl-2-oxo-1,2-dihydropyridine-3-carboxylic acid] | 3.5 to 12.5 (≈ 9.53 to 34 µM) | < 1 | 12.5 to 150 (≈ 34 to 408 µM) | 12.5 to 150 (≈ 34 to 408 µM)
8 | CCc1cc(C(=O)O)c(=O)[nH]c1-c1cc(F)c2c(c1)cc(CN(C)C)n2C [Cpd 106, 6-(2-((dimethylamino)methyl)-7-fluoro-1-methyl-1H-indol-5-yl)-5-ethyl-2-oxo-1,2-dihydropyridine-3-carboxylic acid] | 1 to 3.5 (≈ 2.69 to 9.42 µM) | < 1 | 12.5 to 150 (≈ 33.7 to 404 µM) | 12.5 to 150 (≈ 33.7 to 404 µM)
9 | CCc1cc(C(=O)O)c(=O)[nH]c1-c1cc2cc(CN3CCCC3)n(C)c2cc1OC [Cpd 107, 5-ethyl-6-(6-methoxy-1-methyl-2-(pyrrolidin-1-ylmethyl)-1H-indol-5-yl)-2-oxo-1,2-dihydropyridine-3-carboxylic acid] | 12.5 to 150 (≈ 30.5 to 366 µM) | 12.5 to 150 (≈ 30.5 to 366 µM) | 12.5 to 150 (≈ 30.5 to 366 µM) | 12.5 to 150 (≈ 30.5 to 366 µM)
10 | CCc1cc(C(=O)O)c(=O)[nH]c1-c1cc2cc(CN3CCOCC3)n(C)c2cc1OC [Cpd 108, 5-ethyl-6-(6-methoxy-1-methyl-2-(morpholinomethyl)-1H-indol-5-yl)-2-oxo-1,2-dihydropyridine-3-carboxylic acid] | 12.5 to 150 (≈ 29.4 to 353 µM) | 12.5 to 150 (≈ 29.4 to 353 µM) | 12.5 to 150 (≈ 29.4 to 353 µM) | 12.5 to 150 (≈ 29.4 to 353 µM)
11 | CCc1c(-c2ccc3c(c2)cc(CN2CCC2)n3C)[nH]c(=O)c(C(=O)O)c1C(=O)O [Cpd 109, 6-(2-(azetidin-1-ylmethyl)-1-methyl-1H-indol-5-yl)-5-ethyl-2-oxo-1,2-dihydropyridine-3,4-dicarboxylic acid] | 12.5 to 150 (≈ 30.5 to 366 µM) | 12.5 to 150 (≈ 30.5 to 366 µM) | 12.5 to 150 (≈ 30.5 to 366 µM) | 12.5 to 150 (≈ 30.5 to 366 µM)
12 | CCc1c(-c2ccc3c(c2)cc(CN2CCCC2)n3C)[nH]c(=O)c(C(=O)O)c1C(=O)O [Cpd 110, 5-ethyl-6-(1-methyl-2-(pyrrolidin-1-ylmethyl)-1H-indol-5-yl)-2-oxo-1,2-dihydropyridine-3,4-dicarboxylic acid] | 12.5 to 150 (≈ 29.5 to 354 µM) | 12.5 to 150 (≈ 29.5 to 354 µM) | 12.5 to 150 (≈ 29.5 to 354 µM) | 12.5 to 150 (≈ 29.5 to 354 µM)
13 | CCc1c(-c2ccc3c(c2)cc(CN(C)C)n3C)[nH]c(=O)c(C(=O)O)c1C(=O)O [Cpd 111, 6-(2-((dimethylamino)methyl)-1-methyl-1H-indol-5-yl)-5-ethyl-2-oxo-1,2-dihydropyridine-3,4-dicarboxylic acid] | 12.5 to 150 (≈ 31.5 to 377 µM) | 12.5 to 150 (≈ 31.5 to 377 µM) | 12.5 to 150 (≈ 31.5 to 377 µM) | 12.5 to 150 (≈ 31.5 to 377 µM)
14 | CCc1cc(C(=O)O)c(=O)[nH]c1-c1ccc2c(c1)cc(CNC)n2C [Cpd 112, 5-ethyl-6-(1-methyl-2-((methylamino)methyl)-1H-indol-5-yl)-2-oxo-1,2-dihydropyridine-3-carboxylic acid] | < 1 | < 1 | 12.5 to 150 (≈ 36.8 to 442 µM) | 12.5 to 150 (≈ 36.8 to 442 µM)
15 | CCc1cc(C(=O)O)c(=O)[nH]c1-c1ccc2c(c1)cc(CNC(C)(C)C)n2C [Cpd 113, 6-(2-((tert-butylamino)methyl)-1-methyl-1H-indol-5-yl)-5-ethyl-2-oxo-1,2-dihydropyridine-3-carboxylic acid] | < 1 | < 1 | 12.5 to 150 (≈ 32.8 to 393 µM) | 12.5 to 150 (≈ 32.8 to 393 µM)
16 | CCc1cc(C(=O)O)c(=O)[nH]c1-c1ccc2c(c1)cc(CNCc1ccccc1)n2C [Cpd 114, 6-(2-((benzylamino)methyl)-1-methyl-1H-indol-5-yl)-5-ethyl-2-oxo-1,2-dihydropyridine-3-carboxylic acid] | < 1 | < 1 | 3.5 to 12.5 (≈ 8.42 to 30.1 µM) | 12.5 to 150 (≈ 30.1 to 361 µM)
17 | CCc1cc(C(=O)O)c(=O)[nH]c1-c1ccc2c(c1)cc(CNC(C)(C)c1ccccc1)n2C [Cpd 115, 5-ethyl-6-(1-methyl-2-((2-phenylpropan-2-ylamino)methyl)-1H-indol-5-yl)-2-oxo-1,2-dihydropyridine-3-carboxylic acid] | < 1 | < 1 | 1 to 3.5 (≈ 2.25 to 7.89 µM) | 12.5 to 150 (≈ 28.2 to 338 µM)
18 | CCc1cc(C(=O)O)c(=O)[nH]c1-c1ccc2c(c1)cc(CN[C@H](C)c1ccccc1)n2C [Cpd 116, (R)-5-ethyl-6-(1-methyl-2-((1-phenylethylamino)methyl)-1H-indol-5-yl)-2-oxo-1,2-dihydropyridine-3-carboxylic acid] | < 1 | < 1 | 1 to 3.5 (≈ 2.33 to 8.15 µM) | 12.5 to 150 (≈ 29.1 to 349 µM)
19 | CCc1cc(C(=O)O)c(=O)[nH]c1-c1ccc2c(c1)cc(CN[C@@H](C)c1ccccc1)n2C [Cpd 117, (S)-5-ethyl-6-(1-methyl-2-((1-phenylethylamino)methyl)-1H-indol-5-yl)-2-oxo-1,2-dihydropyridine-3-carboxylic acid] | < 1 | < 1 | 12.5 to 150 (≈ 29.1 to 349 µM) | 12.5 to 150 (≈ 29.1 to 349 µM)
20 | CCc1cc(C(=O)O)c(=O)[nH]c1-c1ccc2c(c1)cc(CN[C@H](CC)c1ccccc1)n2C [Cpd 118, (R)-5-ethyl-6-(1-methyl-2-((1-phenylpropylamino)methyl)-1H-indol-5-yl)-2-oxo-1,2-dihydropyridine-3-carboxylic acid] | 1 to 3.5 (≈ 2.25 to 7.89 µM) | < 1 | 1 to 3.5 (≈ 2.25 to 7.89 µM) | 12.5 to 150 (≈ 28.2 to 338 µM)
21 | CCc1cc(C(=O)O)c(=O)[nH]c1-c1ccc2c(c1)cc(CN[C@@H](CC)c1ccccc1)n2C [Cpd 119, (S)-5-ethyl-6-(1-methyl-2-((1-phenylpropylamino)methyl)-1H-indol-5-yl)-2-oxo-1,2-dihydropyridine-3-carboxylic acid] | 1 to 3.5 (≈ 2.25 to 7.89 µM) | < 1 | 3.5 to 12.5 (≈ 7.89 to 28.2 µM) | 12.5 to 150 (≈ 28.2 to 338 µM)
22 | CCc1cc(C(=O)O)c(=O)[nH]c1-c1ccc2c(c1)cc(CNCc1ccccn1)n2C [Cpd 120, 5-ethyl-6-(1-methyl-2-((pyridin-2-ylmethylamino)methyl)-1H-indol-5-yl)-2-oxo-1,2-dihydropyridine-3-carboxylic acid] | < 1 | < 1 | 3.5 to 12.5 (≈ 8.4 to 30 µM) | 12.5 to 150 (≈ 30 to 360 µM)
23 | CCc1cc(C(=O)O)c(=O)[nH]c1-c1ccc2c(c1)cc(CN1CC[C@H](N)C1)n2C [Cpd 126, (S)-6-(2-((3-aminopyrrolidin-1-yl)methyl)-1-methyl-1H-indol-5-yl)-5-ethyl-2-oxo-1,2-dihydropyridine-3-carboxylic acid] | 12.5 to 150 (≈ 31.7 to 380 µM) | 3.5 to 12.5 (≈ 8.87 to 31.7 µM) | 12.5 to 150 (≈ 31.7 to 380 µM) | 12.5 to 150 (≈ 31.7 to 380 µM)
24 | CCc1cc(C(=O)O)c(=O)[nH]c1-c1ccc2c(c1)cc(CN1CCC(NC)C1)n2C (stereo not shown) [Cpd 127, 5-ethyl-6-(1-methyl-2-((3-(methylamino)pyrrolidin-1-yl)methyl)-1H-indol-5-yl)-2-oxo-1,2-dihydropyridine-3-carboxylic acid] | 12.5 to 150 (≈ 30.6 to 367 µM) | 1 to 3.5 (≈ 2.45 to 8.57 µM) | 12.5 to 150 (≈ 30.6 to 367 µM) | 12.5 to 150 (≈ 30.6 to 367 µM)
25 | CCc1cc(C(=O)O)c(=O)[nH]c1-c1ccc2c(c1)cc(CN1CCC(N(C)C)C1)n2C (stereo not shown) [Cpd 128, 6-(2-((3-(dimethylamino)pyrrolidin-1-yl)methyl)-1-methyl-1H-indol-5-yl)-5-ethyl-2-oxo-1,2-dihydropyridine-3-carboxylic acid] | 1 to 3.5 (≈ 2.37 to 8.28 µM) | < 1 | 12.5 to 150 (≈ 29.6 to 355 µM) | 12.5 to 150 (≈ 29.6 to 355 µM)
